Laboratory results taken from patent US20170175161A1, “RAPID DETERMINATION OF BACTERIAL SUSCEPTIBILITY TO AN […] THE POINT OF CARE” (Point of Care Diagnostics, LLC, priority 2014, published 2017).

System: bacterial infection within the sample (sample 101, e.g. urine)
Experiment: assay 200: antibiotic susceptibility of a bacterial infection by ATP bioluminescence
Format: cell-based
Procedure: To perform assay 200 to determine antibiotic susceptibility of a bacterial infection within the sample, a second test sample 204 and third test sample 205 may be obtained from sample 101 by applying 50 to 400 μL of first reagent 202 and 50 to 300 μL of culture medium 203 to 1 to 20 μL of sample 101 to create second test sample 204 and to 1 to 20 μL of sample 101 to create third test sample 205. First reagent 202 may include 10 to 100 mM of Tris Acetate as a buffer, 0.0001 to 0.1% of Benzethonium Chloride, and 0.5 to 4 Units/ml of Apyrase. First reagent 202 may cause non-bacterial ATP to be released and removed, in a manner similar to that as described herein. Culture medium 203 may include 50 to 300 μL of Tryptic Soy Broth. Culture medium 203 may be applied to second test sample 204 and third test sample 205 and may promote the growth and robustness of the bacterial population, in a manner similar to that described herein.
First antibiotic 206 may be applied to third test sample 205. In this example, first antibiotic 206 may include 10 to 100 μg of Amoxicillin. Second test sample 204 and the third test sample 205 may then be incubated for ˜40 minutes at 37 degrees Celsius.
After incubation, second reagent 207 (e.g., 100 to 500 μL) may be applied to second test sample 204 and third test sample 205. Second reagent 207 may include 10 to 100 mM of Tris Acetate as a buffer and 2 to 30 mg/L of Luciferase, 2 to 30 mg/L of Luciferin, and 0.1 to 0.5% of Chlorhexidine di-gluconate. […]
A Berthold Junior Luminometer may be used to measure a first bioluminescent signal (and associated strength) from third test sample 205 and a second bioluminescent signal (and associated strength) from second test sample 204 (e.g., based on released ATP, etc.). In a manner similar to that described above, the strength associated with the first bioluminescent signal and/or the strength associated with the second bioluminescent signal may be proportional to the respective quantity and/or concentration of ATP and/or quantity of bacterial cells within third test sample 205 and/or second test sample 204, respectively. […] In this example, the strength of the first bioluminescent signal was measured to be 66,823 RLU's and the strength of the second bioluminescent signal was measured to be 62,535 RLU's. Thus, the quantity of bacteria cells in third test sample 205 was ˜62,000 cfu/ml and the quantity of bacteria cells in the second test sample 204 was ˜67,000 cfu/ml.
In the event that the bacteria, within third test sample 205, are susceptible to first antibiotic 206, the quantity of bacterial cells in third test sample 205 may be less than the quantity of bacterial cells in second test sample 204. […]

CC1(C)S[C@@H]2[C@H](NC(=O)[C@H](N)c3ccc(O)cc3)C(=O)N2[C@H]1C(=O)O [Amoxicillin]
susceptibility of the bacteria to the antibiotic (10-100 μg, ΔL compared to second threshold >30% difference): may not be susceptible
strength of the first bioluminescent signal (third test sample 205, with antibiotic) (10 to 100 μg antibiotic, incubated ~40 minutes at 37 degrees Celsius, Berthold Junior Luminometer, baseline second test sample 62,535 RLU's): 66,823 RLU's
quantity of bacteria cells in third test sample 205 (10 to 100 μg antibiotic, ~40 minutes at 37 degrees Celsius, baseline second test sample ~67,000 cfu/ml): ~62,000 cfu/ml
ΔL, difference between first and second bioluminescent signal strength (antibiotic-treated vs baseline sample, second threshold >30% difference): 7.5%
